Results taken from patent US20140220108A1, “COCHLEATE COMPOSITIONS AND METHODS OF MAKING AND USING SAME” (priority 2011, published 2014).
≈ marks a conversion by molar mass, not a printed value. Where two headings read alike, the source gives them in different places.

Key:
[1] = Encochleation efficiency by lipid composition, drug in supernatant after centrifugation; type: physicochemical; settings: independent of the lipid composition of the PS vesicles
Procedure: For example, incorporation of phosphatidylserine (PS) combined with 99.9% pure dioleoyl PS, 99.9% pure soy PS, 75% soy PS and 50% soy PS, were used to manufacture cochleates. The lipid composition of 99.9% pure PS was modified by the addition of sphingomyelin, phosphatidylcholine and/or cholesterol. Encochleation efficiency was determined by assaying the concentration of drug in the supernatant following centrifugation.

M. avium = settings: cited from earlier work
F. tularensis LVS = type: cell-based, Francisella tularensis; settings: no treatment 3.0 ± 0.3 × 10^6
M. avium 101 [2] = assay: Splenic bacterial counts in M. avium 101-infected C57BL/6 mice; type: in vivo, Mycobacterium avium; settings: 1 mg amikacin/mouse/day, 2 weeks, 3 weeks infected control 7.8 ± 0.4 × 10^7
M. avium 101 [3] = assay: M. avium 101-infected mouse peritoneal macrophages (Raw 264.7), intracellular bacteria after 4 days of treatment; type: cell-based, Mycobacterium avium
Procedure: (§1) Amikacin cochleate (Amkcch) formulations were optimized for amikacin encochleation efficiency and particle size by varying the type of PS used, the PS:drug ratio, PS:Ca ratio, and NaCl concentration. The efficacy of Amkcch against intracellular Ma infections was evaluated in vitro using mouse peritoneal macrophage infected with M. avium strains MAC 101 or MAC 109. Mouse peritoneal macrophages (Mo) Raw 264.7 cells were seeded at 10^5 cells/well. Mo monolayers were infected at ratio 1:10 for 1 h and extracellular bacteria removed. Monolayers were treated with free amikacin and/or cochleate preparations for 4 days and the number of intracellular bacteria determined. Assays were repeated three times.
(§2) The efficacy of Amkcch against, intracellular Ma infections was evaluated in vitro using mouse peritoneal macrophage infected with M. avium strains MAC 101 or MAC 109. Mouse peritoneal macrophages (Mo) Raw 264.7 cells were seeded at 10^5 cells/well. Mo monolayers were infected at ratio 1:10 for 1 hour and extracellular bacteria removed. Monolayers were treated with free amikacin and/or cochleate preparations for 4 days and the number of intracellular bacteria determined. Assays were repeated three times.
The cochleate preparations used to evaluate biological activity against Mycobacterium avium in vitro included: 1. 2.0 ml/vial of 0 M NaCl amikacin formulation with 0.5 mg/ml; 2. 2.0 ml/vial of 0.066M NaCl amikacin formulation with 0.5 mg/ml; 3. 2.0 ml/vial of 0.33M NaCl amikacin formulation with 0.5 mg/ml; 4. 2.0 ml/vial of 0.66M NaCl amikacin formulation with 0.5 mg/ml; 5. 2.0 ml/vial of 0 M NaCl placebo formulation with 5 mg PS/ml; 6. 2.0 ml/vial of placebo formulation plus amikacin with 0.5 mg/ml; and 7. 2.0 ml/vial of free amikacin in water with 0.5 mg/ml.

M. avium 109 = assay: M. avium 109-infected mouse peritoneal macrophages (Raw 264.7), intracellular bacteria after 4 days of treatment; type: cell-based, Mycobacterium avium; settings: inoculum 2.4 ± 0.3 × 10^5, untreated 3.1 ± 0.6 × 10^6
Procedure: as §1, §2
The cochleate preparations used to evaluate biological activity against Mycobacterium avium in vitro included: 1. 2.0 ml/vial of 0 M NaCl amikacin formulation with 0.5 mg/ml; 2. […]

MAC184 strain = assay: MIC against clarithromycin-resistant clinical isolate MAC184; set-up: species or system M. avium; settings: Mycobacterium avium
MAC 101 = assay: MIC against susceptible M. avium strain MAC 101; settings: Mycobacterium avium, such as MAC 101

C[C@@H]1[C@H](O)[C@@H](C)/C=C/C=C/C=C/C=C/C=C/C=C/C=C/[C@H](O[C@@H]2O[C@H](C)[C@@H](O)[C@H](N)[C@@H]2O)C[C@@H]2O[C@](O)(C[C@@H](O)C[C@@H](O)[C@H](O)CC[C@@H](O)C[C@@H](O)CC(=O)O[C@H]1C)C[C@H](O)[C@H]2C(=O)O [AmB, Amphotericin B]
encochleation efficiency [1]: greater than 85%

NCC[C@H](O)C(=O)N[C@@H]1C[C@H](N)[C@@H](O[C@H]2O[C@H](CN)[C@@H](O)[C@H](O)[C@H]2O)[C@H](O)[C@H]1O[C@H]1O[C@H](CO)[C@@H](O)[C@H](N)[C@H]1O [Free amikacin, amikacin]
frequency of resistance (M. avium): 10^−11
intracellular bacteria Day 4 (F. tularensis LVS; amikacin 4 μg/ml): 7.6 ± 0.3 × 10^2 CFU/ml
CFU/spleen (M. avium 101 [2]; I.P.): 9.3 ± 0.4 × 10^6 CFU/spleen
CFU/spleen (M. avium 101 [2]; oral): 6.9 ± 0.3 × 10^7 CFU/spleen
# bacteria day 4 (M. avium 101 [3]; 20 μg/l, inoculum 3.8 ± 0.4 × 10^5, untreated 4.9 ± 0.5 × 10^6): 3.8 ± 0.5 × 10^4
# bacteria day 4 (M. avium 101 [3]; inoculum 3.8 ± 0.4 × 10^5, untreated 4.9 ± 0.5 × 10^6): 4.9 ± 0.3 × 10^4
# bacteria day 4 (M. avium 109; 10 μg/l): 5.0 ± 0.3 × 10^4
# bacteria day 4 (M. avium 109; 20 μg/l): 2.9 ± 0.4 × 10^4

CC[C@@H](CO)NCCN[C@@H](CC)CO [ethambutol]
MIC (MAC184 strain): 8 µg/mL (≈ 39.2 µM)
MIC (MAC 101): 4 µg/mL (≈ 19.6 µM)

gentamicin [Free gentamicin]
intracellular bacteria Day 4 (F. tularensis LVS; gentamicin 2 μg/ml): 9.3 ± 0.3 × 10^2 CFU/ml
# bacteria day 4 (M. avium 101 [3]; gentamicin 30 μg/ml (30 μg/l in two rows), untreated 6.4 ± 0.5 × 10^6): 1.9 ± 0.3 × 10^5
